# Source: patent publication US20250255961A1, “METHODS TO STIMULATE IMMUNE RESPONSES TO MUTANT RAS USING NUCLEATED CELLS” (STEMCELL TECHNOLOGIES CANADA INC., priority 2020, published 2025)
# Legend:
# [1] = test system: K-Ras G12V responder T cells; test: IFN-γ ELISPOT: peptide-loaded HLA-A*11+ human PBMCs co-cultured with K-Ras G12V responder T cells; type: cell-based; settings: Example 4, FIG. 4, HLA-A*11+ human PBMCs (donor 296) SQZ-loaded with 100 μM SLP
# Description: (§1) Human PBMCs from HLA-A*11^+ donor (donor 296) were prepared at a density of 10×10^6/mL, SQZ processed at room temperature through a constriction of 4.5 μm width, 10 μm length and 70 μm depth at 60 psi with 100 μM of the respective K-Ras synthetic long peptide (G12V^1-16, G12V^2-19) or with vehicle control (DMSO) in RPMI medium. Following SQZ-processing, the SQZ-loaded PMBCs were centrifuged, and the supernatant was discarded. The cells were subsequently washed once in R10 medium (RPMI+10% FCS+1% Pen/Strep), then washed twice in CTL medium (supplemented with 1% glutamine), before resuspension in fresh CTL medium (supplemented with 1% glutamine).
# 2×10^5 SQZ-loaded PBMCs were then placed in co-culture with 5×10^4 K-Ras G12V responder T cells (generated in transgenic mice) in an IFN-γ ELISPOT plate. As a positive control, 10 μM K-Ras G12V^7-16 peptide containing the minimal epitope was added directly to untreated PBMCs and responder cells in the ELISPOT plate (peptide spike). The plate was incubated overnight at 37° C. and then developed/quantified according to manufacturer's instructions.
# as §1, with “donor” for “donor (donor 296)”, “constriction with” for “constriction of”, “peptide (K-Ras G12V^3-17, K-Ras G12V^3-42)” for “peptide (G12V^1-16, G12V^2-19)”, “medium. An irrelevant synthetic long peptide (HPV-E7.6) was used as a negative control.” for “medium.”
# as §1, with “donor” for “donor (donor 296)”, “10× 10^6/mL,” for “10×10^6/mL,”, “(wild type K-Ras^1-16, G12V^1-16, wild type K-Ras^2-22, or G12V^2-22)” for “(G12V^1-16, G12V^2-19)”
# as §1, with “donor” for “donor (donor 296)”, “of a single” for “of the respective”, “peptide (G12V^1-16” for “peptide (G12V^1-16, G12V^2-19)”, “or G12V^2-19), or a combination of two K-Ras synthetic long peptides which are each at 100 μM (G12V^1-16 plus G12D^1-16 or G12V^2-19 plus G12D^1-16) or” for “or with”, “glutamine). […]” for “glutamine).”
# [2] = test system: K-Ras G12V responder T cells; test: as above; type: cell-based; settings: Example 8, FIG. 8; HLA-A*11+ human PBMCs SQZ-loaded with one SLP or a combination of two SLPs, each at 100 μM
sequence,measurement,setting,value
"TEYKLVVVGAVGVGKSAL [G12V^2-19, K-Ras G12V synthetic long peptide, residues 2-19]",IFN-γ secretion by K-Ras-G12V responder T cells upon co-culture,[1],significantly increased
same,IFN-γ secretion by K-Ras-G12V responder T cells upon co-culture,[1]; listed as K-Ras-G12V^2-19,increased amount
same,IFN-γ expressing K-Ras-G12V responder T cells upon co-culture,[2],significant increases
